These results are taken from US20220324868A1, “Pyrazolone-Fused Pyrimidine Compound, and Preparation Method and Use Therefor” (SHANGHAI PHARMACEUTICALS HOLDING CO., LTD., priority 2019, published 2022).

The term IC50 denotes the concentration that inhibits the measured activity by half.

Each structure is given as a SMILES string. Structures can show the parent of a compound that is named as a salt.

T1 sequence (P30291 whole entry): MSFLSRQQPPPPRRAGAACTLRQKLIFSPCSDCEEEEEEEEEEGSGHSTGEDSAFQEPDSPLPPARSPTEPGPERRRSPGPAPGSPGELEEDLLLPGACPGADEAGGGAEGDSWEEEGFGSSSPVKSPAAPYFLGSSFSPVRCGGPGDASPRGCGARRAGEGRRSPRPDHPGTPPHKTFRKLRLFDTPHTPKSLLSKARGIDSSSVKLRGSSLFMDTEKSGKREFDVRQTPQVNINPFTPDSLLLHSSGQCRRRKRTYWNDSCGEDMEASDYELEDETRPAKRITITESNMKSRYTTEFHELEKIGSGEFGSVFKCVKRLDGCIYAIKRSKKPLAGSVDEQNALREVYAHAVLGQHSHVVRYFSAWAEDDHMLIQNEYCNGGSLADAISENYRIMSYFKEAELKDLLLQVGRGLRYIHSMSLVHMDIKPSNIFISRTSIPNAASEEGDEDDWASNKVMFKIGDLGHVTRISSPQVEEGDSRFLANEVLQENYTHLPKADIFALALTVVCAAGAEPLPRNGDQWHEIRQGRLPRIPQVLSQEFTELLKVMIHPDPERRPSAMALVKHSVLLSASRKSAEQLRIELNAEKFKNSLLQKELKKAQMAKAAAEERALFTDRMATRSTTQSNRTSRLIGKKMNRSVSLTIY

The assay has as its target T1, WEE1 kinase (Homo sapiens, UniProt P30291).
T1 construct: purchased CarnaBiosciences, Inc. 05-177
Kind of assay: Inhibitory effect on WEE1 kinase in vitro (ELISA). The format is biochemical. Conditions: ATP concentration of Km (12 μM), WEE1 0.15 ng/μL, 60 min, read-out: WEE1 IC50. The procedure: I. Inhibitory Effect of Compound on WEE1 Kinase In Vitro
The tested compounds were screened on WEE1 kinase with ATP concentration of Km by ELISA. Three compounds were screened on WEE1 kinase to evaluate the kinase inhibitory activity of the tested compounds. In the detection process, the initial concentration of the tested compounds was all selected as 100 nM, and each compound was selected with 6 gradient dilution concentrations, the gradient dilution ratio was 4-fold, and two replicate wells were detected for each concentration, MK1775 was used as the standard control.
1. Coating substrate: 1) An appropriate volume of substrate storage solution protein tyrosinase (PTK) substrate (poly-Glu-Tyr) was taken, diluted 10 times with PBS, and the concentration was diluted from […]. The mixture was added to a high adsorption 96-well plate at 125 μL per well. The plate was placed in an incubator at 37° C. for overnight coating. 2) After 24 hours, the 96-well plate was taken out, the liquid in the 96-well plate was poured out, cleaned with washing buffer for 3 times, and the incubator at 37 was inverted and dried for 2 hours.
3. Enzyme reaction stage: 1) WEE1 kinase and ATP were prepared into 2× enzyme solution and 4× ATP solution respectively with 1× reaction buffer.
4. Reaction termination stage: 1) the reaction mixture in the plate was poured out, 200 μL of washing buffer was added to each well, and washed for 5 times; the primary antibody P-Tyr (PY99) (dilution ratio 1:2000) was added, 100 μL per well, at room temperature for 30 min. 2) The primary antibody in the plate was poured out, 200 μL of washing buffer was added to each well, and washed for 5 times; the second antibody Anti-mouse IgG HRP-linked Antibody (dilution ratio 1:2000) was added, 100 μL per well, at room temperature for 30 min. 3) The secondary antibody in the plate was poured out, washed 5 times with washing buffer, and TMB was added, 100 μL per well, and colored for 10-30 min, depending on the color depth. The reaction was terminated with 1N sulfuric acid before reading.
5. […] 2) Graphpad Prism 5.0 was used to fit Log(inhibitor) vs. response-Variable slope (four parameters) curves to the data, and the corresponding IC50 (half maximal inhibitory concentration) was calculated.
A general note: In an ELISA, binding on a coated surface is turned into a signal by an enzyme label.
As to `C=CCn1c(=O)c2cnc(Nc3ccc(N4CCC5(CC4)CN(C)C5)cc3)nc2n1-c1ccc2c(n1)C(O)CC2` (stereo not shown) [Compound I-8], the IC50 is 11.3 nM.

Consider `C=CCn1c(=O)c2cnc(Nc3ccc([C@H]4CC[C@@H](N(C)C)CC4)cc3)nc2n1-c1ccc2c(n1)C(C)(O)CCC2` (single isomer, unassigned) [Compound I-36-1], for which the IC50 was determined as 4.75 nM.

As for `C=CCn1c(=O)c2cnc(Nc3ccc(N4CC5CC4CN5)cc3)nc2n1-c1ccc2c(n1)C(C)(O)CC2` (stereo not shown) [Compound I-12, 6-((4-(2,5-diazabicyclo[2.2.1]heptan-2-yl)phenyl)amino)-2-allyl-1-(7-hydroxy-7-methyl-6,7-dihydro-5H-cyclopenta[b]pyridin-2-yl)-1,2-dihydro-3H-pyrazolo[3,4-d]pyrimidin-3-one], the IC50 was 3.68 nM.

As to `C=CCn1c(=O)c2cnc(Nc3ccc(N4CCC5(CC4)CN(C)C5)cc3)nc2n1-c1ccc2c(n1)C(O)CCC2` (stereo not shown) [Compound I-20, 2-allyl-1-(8-hydroxy-5,6,7,8-tetrahydroquinolin-2-yl)-6-((4-(2-methyl-2,7-diazaspiro[3.5]nonan-7-yl)phenyl)amino)-1,2-dihydro-3H-pyrazolo[3,4-d]pyrimidin-3-one], the IC50 was 4.41 nM.

Consider `C=CCn1c(=O)c2cnc(Nc3ccc([C@H]4CC[C@@H](N(C)C)CC4)cc3)nc2n1-c1ccc2c(n1)C(O)CC2` (single isomer, unassigned) [Compound I-30-2], for which the IC50 worked out at 6.6 nM.

As to `C=CCn1c(=O)c2cnc(Nc3ccc(N4CCOCC4)cc3)nc2n1-c1ccc2c(n1)C(C)(O)CC2` (stereo not shown) [Compound I-15], the IC50 was determined as 3.85 nM.

Consider `C=CCn1c(=O)c2cnc(Nc3ccc(CCCN(C)C)cc3)nc2n1-c1ccc2c(n1)C(O)CC2` (stereo not shown) [Compound I-43], for which the IC50 was determined as 4.91 nM.

With `C=CCn1c(=O)c2cnc(Nc3ccc(N4CCC5(CC4)CNC5)cc3)nc2n1-c1ccc2c(n1)C(O)CCC2` (stereo not shown) [Compound I-21, 6-((4-(2,7-diazaspiro[3.5]nonan-7-yl)phenyl)amino)-2-allyl-1-(8-hydroxy-5,6,7,8-tetrahydroquinolin-2-yl)-1,2-dihydro-3H-pyrazolo[3,4-d]pyrimidin-3-one], the IC50 was determined as 5.75 nM.

Consider `C=CCn1c(=O)c2cnc(Nc3ccc(CCC(=O)N4CCCC4)cc3)nc2n1-c1ccc2c(n1)C(C)(O)CCC2` (stereo not shown) [Compound I-17, 2-allyl-1-(8-hydroxy-8-methyl-5,6,7,8-tetrahydroquinolin-2-yl)-6-((4-(3-oxo-3-(pyrrolidin-1-yl)propyl)phenyl)amino)-1,2-dihydro-3H-pyrazolo[3,4-d]pyrimidin-3-one], for which the IC50 came to 12.8 nM.

For the compound `C=CCn1c(=O)c2cnc(Nc3ccc(N4C[C@H]5CN(C)C[C@H]5C4)cc3)nc2n1-c1ccc2c(n1)C(O)CC2` (stereo partly shown) [Compound I-31], the IC50 was found to be 3.12 nM.

Turning to `C=CCn1c(=O)c2cnc(Nc3ccc(N4CC5CC4CN5)cc3)nc2n1-c1ccc2c(n1)C(O)CCC2` (stereo not shown) [Compound I-25], the IC50 was found to be 4.05 nM.

Regarding `C=CCn1c(=O)c2cnc(Nc3ccc(N4CCC5(CCNC5)CC4)cc3)nc2n1-c1ccc2c(n1)C(O)CCC2` (stereo not shown) [Compound I-22], the 50% inhibitory concentration (IC50) is 3.55 nM.

Turning to `C=CCn1c(=O)c2cnc(Nc3ccc([C@H]4CC[C@@H](N(C)C)CC4)cc3)nc2n1-c1ccc2c(n1)C(C)(O)CCC2` (single isomer, unassigned) [Compound I-36-2], the IC50 turned out to be 2.65 nM.

Regarding `C=CCn1c(=O)c2cnc(Nc3ccc(N4CCC(N(C)C)CC4)cc3)nc2n1-c1ccc2c(n1)C(O)CCC2` (stereo not shown) [Compound I-28, 2-allyl-6-((4-(4-(dimethylamino)piperidin-1-yl)phenyl)amino)-1-(8-hydroxy-5,6,7,8-tetrahydroquinolin-2-yl)-1,2-dihydro-3H-pyrazolo[3,4-d]pyrimidin-3-one formate], the IC50 stood at 3.58 nM.

Regarding `C=CCn1c(=O)c2cnc(Nc3ccc(N4C[C@H]5CN(CC)C[C@H]5C4)cc3)nc2n1-c1ccc2c(n1)C(O)CC2` (stereo partly shown) [Compound I-37], the IC50 was 11.8 nM.

With `C=CCn1c(=O)c2cnc(Nc3ccc(N4CCNCC4)cc3)nc2n1-c1ccc2c(n1)C(O)CCC2` (stereo not shown) [Compound I-24], the IC50 was determined as 3.81 nM.
